From PubChem BioAssay (NCI)
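Exposure lasted 48 hours, with cells grown in 96-well plates and compounds tested at five concentrations. The concentration for 50% growth inhibition is given as GI50. TGI denotes the concentration required for complete inhibition of growth.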

What was measured:
Assay in all cases: inhibition of tumour cell growth, NCI panel, 48 h
HCC-2998 colon = test system: HCC-2998 colon
OVCAR-5 ovarian = test system: OVCAR-5 ovarian
MALME-3M melanoma = test system: MALME-3M melanoma
UACC-257 melanoma = test system: UACC-257 melanoma
NCI-H23 lung = test system: NCI-H23 lung
SF-268 CNS = test system: SF-268 CNS
MDA-MB-231 breast = test system: MDA-MB-231 breast
SNB-19 CNS = test system: SNB-19 CNS
UACC-62 melanoma = test system: UACC-62 melanoma
CAKI-1 renal = test system: CAKI-1 renal

Row | SMILES | TGI (HCC-2998 colon) [µM] | TGI (OVCAR-5 ovarian) [µM] | TGI (MALME-3M melanoma) [µM] | TGI (UACC-257 melanoma) [µM] | TGI (NCI-H23 lung) [µM] | TGI (SF-268 CNS) [µM] | TGI (MDA-MB-231 breast) [µM] | TGI (SNB-19 CNS) [µM] | TGI (UACC-62 melanoma) [µM] | TGI (CAKI-1 renal) [µM] | GI50 (MDA-MB-231 breast) [µM]
1 | CN(C)c1ccc(/C=N/Nc2nc3ccccc3c(=O)n2-c2ccccc2)cc1 | > 100 | > 100 | > 100 | > 100 | > 100 | > 100 | > 100 | > 100 | 93.6 | > 100 | –
2 | CC(C)/C(Cl)=N/OC(=O)Nc1ccc(F)c(Cl)c1 | 28.1 | 34.6 | 4.08 | 26.5 | 27.8 | 40.3 | 30.7 | 45.8 | 27.3 | 3.06 | –
3 | c1ccc2c(-c3cnc(-c4c[nH]c5ccccc45)cn3)c[nH]c2c1 | > 100 | > 100 | > 100 | > 100 | > 100 | > 100 | > 100 | > 100 | > 100 | > 100 | –
4 | COc1ccc(N[C@H](CS(=O)c2ccc(C)cc2)c2ccc(F)cc2)cc1 (stereo partly specified) | > 100 | > 100 | > 100 | > 100 | > 100 | 94.5 | > 100 | > 100 | > 100 | > 100 | –
5 | Cc1ccc(C(=O)N(C2CCCCC2)C2CCCCC2)cc1N=NN(C)C | 29.4 | 38.2 | 31 | 28 | 27.9 | 27.7 | 25.7 | 26.4 | 21.6 | 27.2 | –
6 | CC(=O)NCCCCNCCCNC(C)=O | > 100 | > 100 | > 100 | > 100 | > 100 | > 100 | > 100 | > 100 | > 100 | > 100 | –
7 | Cn1ccnc1S/C(=C\C=C(C#N)C#N)c1ccc(Cl)cc1 | 9.54 | 7.81 | 3.27 | 5.5 | 5.31 | 14.4 | 15 | 10.8 | 9.36 | 6.16 | 4.15
8 | CC(=O)O/C=C\OC1CCCC1(c1ccccc1)c1ccccc1 (stereo unspecified) | 24.3 | 15.3 | 4.61 | 13.6 | 8.11 | 10.3 | 5.51 | 26.3 | 17.5 | 14.3 | –
9 | C=CC(=O)N1C/C(=C\c2ccc(N(C)C)cc2)C(=O)/C(=C/c2ccc(N(C)C)cc2)C1 | > 100 | > 100 | > 100 | > 100 | > 100 | > 100 | > 100 | > 100 | > 100 | > 100 | –
10 | CC(C)Oc1c(-c2c(OC(C)C)c(=O)c2=O)c(=O)c1=O | > 100 | > 100 | 4 | > 100 | > 75.6 | > 75.9 | > 57.2 | > 100 | > 61.5 | > 100 | –
11 | Cc1cn(C2CC(n3cc(Cn4cc(F)c(=O)[nH]c4=O)nn3)C(CO)O2)c(=O)[nH]c1=O (stereo unspecified) | > 100 | > 100 | > 100 | > 100 | > 100 | > 100 | > 100 | > 100 | > 100 | > 100 | –
12 | Cc1ccc(F)cc1NC(=O)O/N=C(\Cl)C(C)C | 34.4 | 31.7 | 16 | 46.7 | > 56.9 | 62.8 | 32.8 | > 56.8 | 39.7 | 3.09 | –
13 | O=C(NCCN(CCNC(=O)c1cccc(=O)n1O)CCN(CCNC(=O)c1cccc(=O)n1O)CCNC(=O)c1cccc(=O)n1O)c1cccc(=O)n1O | > 100 | > 100 | > 100 | > 100 | > 100 | > 100 | > 100 | > 100 | > 100 | > 100 | –
14 | Cc1ccc(C(=O)OC[C@H]2CC[C@@H](n3cc(N(C)C4CCCCC4)c(=O)[nH]c3=O)O2)cc1 | > 100 | 81 | 56.7 | 98.5 | > 100 | 86.5 | 41.3 | 61.4 | 96.2 | > 100 | –
15 | CSc1c(C(=O)Nc2ccccc2)c(N)nn1-c1ccccc1 | > 100 | > 100 | > 100 | > 100 | > 100 | > 100 | > 100 | > 100 | > 100 | > 100 | –
16 | Cc1c(-c2c(C)c3ccccc3n2S(=O)(=O)c2ccccc2)n(S(=O)(=O)c2ccccc2)c2ccccc12 | > 69 | > 100 | 13.1 | > 100 | > 100 | > 100 | > 100 | > 100 | > 100 | > 100 | –
17 | CC1=NOC2(C1)/C(=N/O)CCC/C2=N\O (stereo unspecified) | > 100 | > 100 | > 100 | > 100 | > 100 | > 100 | > 100 | > 100 | > 100 | > 100 | –
18 | CC1(C)OC2OC(COC(=O)C=[N+]=[N-])C3OC(C)(C)OC3C2O1 (stereo unspecified) | > 100 | > 100 | > 100 | > 100 | > 100 | > 100 | > 100 | > 100 | > 100 | > 100 | –
